For 23 molecules, T/C results are on record in PubChem BioAssay AID206 (DTP/NCI, 2004).

Where “and” joins values, the source holds several entries; their conditions need not be identical. Equal values may be shown once. Records with an inconclusive call do not appear. Starred links: 1 amine or outer side, 2 acyl side, 3 side chain; linkers in the order of their positions; H or OH if unused. Non-standard residues stand in square brackets, D forms with d. Residues, ends and D or L forms follow the SMILES beside them. *: point of attachment. X2 = CCC(=O)CC1CC(C)CC(C(=O)[*:2])N1[*:1]; X1 = CCCCCCCCC(C)C(=O)*; Aib = CC(C)(N)C(=O)O; X3 = CC(CN(C)CCO)N*

The experiment has as its system nude mice, HT29 intrarenal xenograft, tumor weight T/C. Kind of experiment: NCI In Vivo Anticancer Drug Screen. Data for tumor model HT29;CX-1 Human Adenocarcinoma (MER+) (intrarenal inoculation) in NU/NU Swiss (nude) mice. As to conditions: endpoint: mean tumor weight change, higher = larger tumour. In a few lines: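 Mice with transplanted tumors are dosed with compound while controls get vehicle only. Survival or tumor burden is then assessed per group, and the treated value is expressed relative to control.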

Where [1] appears, read: dose: 300.0 mg/kg/injection, schedule: Q04DX004 (sc), vehicle: saline.
Setting [2] is: dose: 75.0 mg/kg/injection, schedule: Q04DX004 (sc), vehicle: saline.
Where [3] appears, read: dose: 150.0 mg/kg/injection, schedule: Q04DX004 (sc), vehicle: saline.
Setting [4] is: dose: 0.5 mg/kg/injection, schedule: Q01DX010 (sc), vehicle: saline.

Consider `NC(CCl)=NCC12CC3CC(CC(C3)C1)C2`, for which the T/C reads like this: (dose: 37.5 mg/kg/injection, schedule: Q04DX004 (sc), vehicle: Klucel (hydroxypropylcellulose) (HPC)) 97 % of control; (dose: 75.0 mg/kg/injection, schedule: Q04DX004 (sc), vehicle: Klucel (hydroxypropylcellulose) (HPC)) 114 % of control.

Consider `CCC(C(=O)O)C(=O)O.[NH-]CC1CCCC[N-]1.[Pt+2]`, for which the T/C runs as follows: (dose: 50.0 mg/kg/injection, schedule: Q04DX004 (sc), vehicle: saline) 113 % of control; (dose: 100.0 mg/kg/injection, schedule: Q04DX004 (sc), vehicle: saline) 96 % of control; (dose: 200.0 mg/kg/injection, schedule: Q04DX004 (sc), vehicle: saline) 79 % of control; (dose: 400.0 mg/kg/injection, schedule: Q04DX004 (sc), vehicle: saline) 59 % of control.

In the case of `C=C1C(=O)OCC1C(=O)O` (stereo not given), the T/C is, setting by setting: (dose: 50.0 mg/kg/injection, schedule: Q04DX004 (sc), vehicle: suspension in saline) 87 % of control; (dose: 100.0 mg/kg/injection, schedule: Q04DX004 (sc), vehicle: suspension in saline) 48 % of control; (dose: 200.0 mg/kg/injection, schedule: Q04DX004 (sc), vehicle: suspension in saline) 48 % of control.

As to `C=C1C(=O)C23[C@H](O)C1CC[C@H]2[C@]12COC3(O)[C@@H](O)[C@@H]1C(C)(C)CC[C@@H]2O`, under “dose: 25.0 mg/kg/injection, schedule: Q04DX004 (sc), vehicle: Klucel (hydroxypropylcellulose) (HPC)”, the T/C is 80 % of control.

Take `CC(=O)OC1C(O)C(C)OC(OC2C(OC(=O)C3CCC4C(C3)OC3(CC(OC(=O)/C=C/c5ccccc5)C(C)CO3)C43CO3)OC(C)C(O)C2OC(C)=O)C1O` (stereo not given): the T/C was 100 % of control (dose: 15.0 mg/kg/injection, schedule: Q04DX004 (sc), vehicle: distilled water + Tween-80); 62 % of control (dose: 30.0 mg/kg/injection, schedule: Q04DX004 (sc), vehicle: distilled water + Tween-80); 61 % of control (dose: 60.0 mg/kg/injection, schedule: Q04DX004 (sc), vehicle: distilled water + Tween-80); 91 % of control (dose: 120.0 mg/kg/injection, schedule: Q04DX004 (sc), vehicle: distilled water + Tween-80).

As to `OCC1OC(n2cnc3c(Cl)ncnc32)C(O)C1O` (stereo not given), the T/C reads like this: under setting [1], 94 % of control; (dose: 600.0 mg/kg/injection, schedule: Q04DX004 (sc), vehicle: saline) 84 % of control; (dose: 1200.0 mg/kg/injection, schedule: Q04DX004 (sc), vehicle: saline) 150 % of control.

On to `CC(=O)Oc1c(C)[nH]ccc1=O`, for which the T/C was 112 % of control (dose: 600.0 mg/kg/injection, schedule: Q04DX004 (sc), vehicle: suspension in saline) and 77 % of control (dose: 1200.0 mg/kg/injection, schedule: Q04DX004 (sc), vehicle: suspension in saline).

As for `C1CC[N-]CC1.[Cl][Pt+2][Cl].[NH-]C1CC1`, the T/C was 51 % of control and 54 % of control (dose: 50.0 mg/kg/injection, schedule: Q04DX004 (sc), vehicle: water); 17 % of control (dose: 100.0 mg/kg/injection, schedule: Q04DX004 (sc), vehicle: water).

`CN(C1=NS(=O)(=O)N=C(N(C)c2ccccc2)O1)c1ccccc1`: the T/C reads like this: (dose: 225.0 mg/kg/injection, schedule: Q04DX004 (sc), vehicle: Klucel (hydroxypropylcellulose) (HPC)) 95 % of control; (dose: 450.0 mg/kg/injection, schedule: Q04DX004 (sc), vehicle: Klucel (hydroxypropylcellulose) (HPC)) 153 % of control; (dose: 1800.0 mg/kg/injection, schedule: Q04DX004 (sc), vehicle: Klucel (hydroxypropylcellulose) (HPC)) 168 % of control.

With `CCCCCCCCC(C)C(=O)N1CCCC1C(=O)N1C(CC(=O)CC)CC(C)CC1C(=O)NC(C)C(=O)NC(C)(C)C(=O)NC(C)(C)C(=O)NC(C(=O)NC(C)C(=O)NC(C)(C)C(=O)NC(C)(C)C(=O)NC(C)CN(C)CCO)C(C)CC` (stereo not given) (X1-P[X2]A[Aib][Aib]IA[Aib][Aib]-X3; configuration not given here), the T/C was 94 % of control (dose: 1.88 mg/kg/injection, schedule: Q04DX004 (sc), vehicle: Klucel (hydroxypropylcellulose) (HPC)); 59 % of control and 67 % of control (dose: 3.75 mg/kg/injection, schedule: Q04DX004 (sc), vehicle: Klucel (hydroxypropylcellulose) (HPC)).

For the molecule `CSCS(=O)C[C@H](CO)NC(=O)/C=C/c1c(C)[nH]c(=O)[nH]c1=O` (stereo not given in full), the T/C by setting is: (dose: 0.75 mg/kg/injection, schedule: Q04DX004 (sc), vehicle: saline) 111 % of control; (dose: 1.5 mg/kg/injection, schedule: Q04DX004 (sc), vehicle: saline) 81 % of control.

On to `CC1=C(C)C(=O)O[C@@H]([C@](C)(O)[C@]2(O)CC[C@@]3(O)[C@@H]4C[C@H]5O[C@]56CC=CC(=O)[C@]6(C)[C@H]4CC[C@]23C)C1`, for which the T/C (dose: 450.0 mg/kg/injection, schedule: Q04DX004 (sc), vehicle: suspension in saline) is 86 % of control; the T/C (dose: 900.0 mg/kg/injection, schedule: Q04DX004 (sc), vehicle: suspension in saline) is 76 % of control; the T/C (dose: 1800.0 mg/kg/injection, schedule: Q04DX004 (sc), vehicle: suspension in saline) is 102 % of control.

In the case of `Oc1c(Cl)cc(Cl)cc1C1N2CCCCC2C2c3cccn3-c3ccccc3N21` (stereo not given), the T/C (dose: 1200.0 mg/kg/injection, schedule: Q04DX004 (sc), vehicle: Klucel (hydroxypropylcellulose) (HPC)) was 111 % of control.

On to `CNc1nc2c(N)ncnc2n1C1OC(CO)C(O)C1O` (stereo not given), for which the T/C (dose: 25.0 mg/kg/injection, schedule: Q04DX004 (sc), vehicle: saline) is 87 % of control.

Regarding `COC(C(=O)C(O)C(C)O)C1Cc2cc3cc(OC4CC(OC(C)=O)C(OC5CC(O)C(OC)C(C)O5)C(C)O4)cc(O)c3c(O)c2C(=O)C1OC1CC(OC2CC(OC3CC(C)(O)C(OC(=O)C(C)C)C(C)O3)C(O)C(C)O2)C(O)C(C)O1` (stereo not given), the T/C by setting is: (dose: 0.5 mg/kg/injection, schedule: Q01DX010 (sc), vehicle: saline with Tween-80) 73 % of control; (dose: 1.0 mg/kg/injection, schedule: Q01DX010 (sc), vehicle: saline with Tween-80) 97 % of control; (dose: 1.0 mg/kg/injection, schedule: Q04DX004 (sc), vehicle: saline with Tween-80) 95 % of control; (dose: 2.0 mg/kg/injection, schedule: Q01DX010 (sc), vehicle: saline with Tween-80) 105 % of control; (dose: 2.0 mg/kg/injection, schedule: Q04DX004 (sc), vehicle: saline with Tween-80) 47 % of control; (dose: 4.0 mg/kg/injection, schedule: Q04DX004 (sc), vehicle: saline with Tween-80) 50 % of control.

In the case of `Nc1nncs1`, the T/C runs as follows: (dose: 3.13 mg/kg/injection, schedule: Q01DX010 (sc), vehicle: saline) 97 % of control; (dose: 12.5 mg/kg/injection, schedule: Q01DX010 (sc), vehicle: saline) 84 % of control.

`CN(CCN(C)C(=O)CCOS(C)(=O)=O)C(=O)CCOS(C)(=O)=O`: the T/C is, setting by setting: under setting [2], 64 % of control; under setting [3], 36 % of control.

As to `Cc1cc(N(CCOS(C)(=O)=O)CCOS(C)(=O)=O)ccc1C=Nc1ccc(-c2nc(Cc3ccccc3)sc2C)cc1`, the T/C is, setting by setting: (dose: 50.0 mg/kg/injection, schedule: Q01DX010 (sc), vehicle: Klucel (hydroxypropylcellulose) (HPC)) 92 % of control; (dose: 100.0 mg/kg/injection, schedule: Q01DX010 (sc), vehicle: Klucel (hydroxypropylcellulose) (HPC)) 80 % of control; (dose: 200.0 mg/kg/injection, schedule: Q01DX010 (sc), vehicle: Klucel (hydroxypropylcellulose) (HPC)) 117 % of control.

`BrC1c2cccc3cccc(c23)C1Br` (stereo not given): the T/C by setting is: (dose: 150.0 mg/kg/injection, schedule: Q04DX004 (sc), vehicle: saline with Tween-80) 186 % of control; (dose: 1200.0 mg/kg/injection, schedule: Q04DX004 (sc), vehicle: saline with Tween-80) 36 % of control and 39 % of control.

Take `COc1cc2c(c(OC)c1OC)-c1ccc(OC)c(=O)cc1[C@@H](NC(C)=O)CC2`: the T/C under setting [4] is 70 % of control.

As for `COC(=O)C12OCC34C(CC5C(C)=CC(=O)C(O)C5(C)C3C(O)C1O)OC(=O)C(OC(=O)CC(C)C)C24` (stereo not given), the T/C is, setting by setting: (dose: 1.5 mg/kg/injection, schedule: Q04DX004 (sc), vehicle: saline + alcohol) 59 % of control; (dose: 3.0 mg/kg/injection, schedule: Q04DX004 (sc), vehicle: saline + alcohol) 76 % of control.

Consider `O=NNc1ccccn1`, for which the T/C reads like this: (dose: 0.13 mg/kg/injection, schedule: Q01DX010 (sc), vehicle: saline) 150 % of control; (dose: 0.25 mg/kg/injection, schedule: Q01DX010 (sc), vehicle: saline) 176 % of control; under setting [4], 112 % of control; (dose: 1.0 mg/kg/injection, schedule: Q01DX010 (sc), vehicle: saline) 208 % of control; (dose: 4.0 mg/kg/injection, schedule: Q01DX010 (sc), vehicle: saline) 105 % of control; (dose: 32.0 mg/kg/injection, schedule: Q01DX010 (sc), vehicle: saline) 90 % of control.

Consider `CN(C)CC(Cl)CCl` (stereo not given), for which the T/C is 101 % of control under setting [2], 117 % of control under setting [3] and 50 % of control under setting [1].
